In patent publication US8822541B2, “Use of targeted nitroxide agents in mitigating or treating radiation injury” (University of Pittsburgh—Of the Commonwealth System of …, priority 2008, dated 2014):
“And” between values parts separate entries of the source, which are not always exact repeats. Equal entries are not always repeated.

Columns and labels:
[1] = test system: 32D cl 3 cells; experiment: EPR-based analysis of nitroxide distribution and partitioning in subcellular fractions; assay type: cell-based, mouse; details: 10 μM, 1 h
Method: To determine nitroxide partitioning and distribution in subcellular compartments, electron paramagnetic resonance (EPR) was utilized. 32D cl 3 cells were incubated for 24 h under pelleted or flask growth conditions. After incubation, 150×10^6 cells were resuspended at a concentration of 10×10^6 cells/mL and were treated with 10 μM JP4-039 or 10 μM TEMPO for 1 h (Wipf P, et al., Mitochondrial targeting of selective electron scavengers: synthesis and biological analysis of hemigramicidin-TEMPO conjugates. J Am Chem. Soc. 127: 12460-12461, 2005).
Subcellular compartments were isolated by differential centrifugation. Cells were centrifuged at 1500 RPM for 10 min and the supernatant (media) was removed. The remaining whole cell pellet was washed with cold PBS, resuspended in 0.3 mL of hypotonic buffer solution, and incubated on ice for 45 min. Cells were then lysed by three rapid freeze-thaw cycles in liquid nitrogen for 30 sec and water at 25° C. for 3 min. Lysed cells were centrifuged at 3000×g for 5 min to isolate nucleus and cellular debris. Supernatant was centrifuged at 12000×g for 45 min to isolate mitochondria from cytoplasm (Wipf P, et al., Mitochondrial targeting of selective electron scavengers: synthesis and biological analysis of hemigramicidin-TEMPO conjugates. J Am Chem. Soc. 127: 12460-12461, 2005).
Each cellular fraction (media, whole cell pellet, nucleus/cellular debris, mitochondria, and cytoplasm) was mixed with DMSO (1:1 vol/vol) and 2 mM of potassium ferricyanide (K3Fe(CN)6) to convert […] to EPR-detectable radical forms (Behringer W, et al., Antioxidant Tempol enhances hypothermic cerebral preservation during prolonged cardiac arrest in dogs. J Cereb Blood Flow Metab. 22: 105-117, 2002). 70 μL of the homogenate was loaded into Teflon tubing (0.8 mm internal diameter) (Alpha Wire Corp., Elizabeth, N.J.) which was folded in half and placed into an open ESR quartz tube (inner diameter of 3.0 mm). EPR measurements were made in triplicate using a JEOL-RE1X EPR spectrometer (Jeol, Tokyo, Japan) under the following conditions: 334.7 mT center field, 5 mT sweep width, 0.079 mT field modulation, 20 mW microwave power, 0.1 sec time constant, and 2 min scan time at 22.5° C. Utilizing signal magnitude and isolated volumes, amount and concentration of JP4-039 or TEMPO were calculated for each sample.

[2] = test system: rat ileal mucosa; experiment: Intestinal mucosal permeability assay (FD4) after hemorrhagic shock; assay type: in vivo; details: intraluminal
Method: Intestinal mucosal permeability assay. Animals were allowed access to water but not food for 24 h prior to the experiment in order to decrease the volume of intestinal contents. The rats were instrumented as described above. A midline laparotomy was performed and the small intestine was exteriorized from the duodenojejunal junction to the ileocecal valve. A small incision was made on the antimesenteric aspect of the proximal small intestine and saline solution (1.5 ml) was injected. The bowel was ligated proximally and distally to the incision with 4-0 silk (Look, Reading, Pa.).
The small intestine was compressed gently in aboral direction along its length to displace intestinal contents into the colon. Starting 5 cm from the ileocecal valve, the ileum was partitioned into six contiguous water-tight segments. […]
The remaining four other segments were injected with solutions containing either 4-hydroxy-2,2,6,6-tetramethylpiperidine-N-oxyl (TEMPOL) or one of the Gramicidin S-based compounds. Four different final concentrations of TEMPOL in normal saline were evaluated: 0.1, 1, 5 and 20 mM. […]
Fluorescence of FD4 in the solution inside the beaker and within each gut sac was measured using a fluorescence spectrophotometer (LS-50, Perkin-Elmer, Palo Alto, Calif.) at an excitation wavelength of 492 nm and an emission wavelength of 515 nm. […]

SMILES: CC(C)C[C@@H](/C=C/CC(=O)NC1CC(C)(C)N([O])C(C)(C)C1)NC(=O)OC(C)(C)C [JP4-039, TEMPO-4-yl-(S,E)-5-(tert-butoxycarbonylamino)-7-methyloct-3-enamide]
- cellular EPR signal detected in mitochondria ([1]; exponential growth): 5.0±0.3%
- cellular EPR signal in nucleus and/or cellular debris ([1]; exponential growth): 37.2±0.3%
- cellular EPR signal in the cytoplasm ([1]; exponential growth): 19.4±1.6%
- concentration in the nucleus and cellular debris ([1]; exponential growth): 10.1 ± 0.1 µM
- concentration in the whole cell pellet ([1]; exponential growth): 12.6 ± 0.2 µM
- mitochondrial concentration ([1]; exponential growth): 8.5 ± 0.5 µM
- cellular EPR signal in nucleus and/or cellular debris ([1]; pelleted cells): 33.2±3.8%
- cellular EPR signal in the cytoplasm ([1]; pelleted cells): 29.5±0.7%
- cellular EPR signal localized to the mitochondria ([1]; pelleted cells): 3.9±0.2%
- mitochondrial concentration ([1]; pelleted cells): 10.90 ± 0.48 µM and 10.9 µM

SMILES: CC(C)C[C@@H](/C=C/[C@H](Cc1ccccc1)C(=O)N1CCC[C@H]1C(=O)N[C@H](C(=O)N[C@@H](CCCNC(=O)OCc1ccccc1)C(=O)NC1CC(C)(C)N([O])C(C)(C)C1)C(C)C)NC(=O)OC(C)(C)C [XJB-5-131]
- hemorrhagic shock-induced mucosal hyperpermeability relative to control [2]: approximately 60 % of the control value
- potency relative to TEMPOL [2]: ~1000 fold
